Results on two compounds are retold here after US9360471B2, “Anti-aging agents and methods to identify them” (priority 2009, dated 2016).

The test system of one assay is WI-38 cells. The assay can be described thus: MPP+ induced ROS in WI-38 cells, dehydrorhodamine 123 and FACS. The format is cell-based, human. To be noted: 200 μM MPP^+, 3 days. Here is the method:
MPP+ with various concentrations of rapamycin was incubated with WI-38 cells for 3 days. Cells were stained with dehydrorhodamine 123 in the dark for 30 min prior to FACS analysis.
MPP^+, an inhibitor of complex I (NADH CoQ1 reductase) in the mitochondrial respiratory chain, is a dopaminergic neurotoxin. It is commonly used to induce Parkinson's disease in […]. Human primary fibroblast WI-38 cells were treated with 200 μM MPP^+ for 3 days. Cells were then stained with dehydrorhodamine 123 in the dark for 30 min. Cells were then analyzed by FACS.

For assay [1], the system named is senescent WI-38 cells (human primary fibroblast). The assay can be described thus: loss of senescent WI-38 cells, β-galactosidase (X-gal) staining. The format is cell-based. The note with it: 56 days in senescence; 50 pM rapamycin, 250 μM AICAR, 20 μg/mL EGCG, 1.6 μg/mL GSE, 20 μg/mL bilberry extract, 1 μM AITC, 12.5 μM 2-deoxyglucose; 3-day-on/7-day-off (AICAR 2-day-on/8-day-off). Here is the method: AICAR and reduced glucose treatment were incubated with cells in a 2-day-on/8-day-off cycle, while the rest of agents were in a 3-day-on/7-day-off cycle. The treatment started at passage 29. The medium was refreshed every 3 days. After 56-days from passage 31 (senescence), the cells were briefly fixed in 2% formaldehyde/0.2% glutaraldehyde and stained with 1 mg/mL 5-bromo-4-chloro-3-indolyl β-D-galactoside (X-gal) (in buffer containing 40 mM citric acid/sodium phosphate, pH 6.0, 5 mM potassium ferrocyanide, 5 mM potassium ferricyanide, 150 mM NaCl, and 2 mM MgCl2) at 37° C. for 18 hrs for the senescence marker, cellular β-galactosidase activity (blue in color picture and dark grey in black/white picture). Surviving senescent cells were viewed under a microscope.
This invention discloses that CR or rapamycin also prolongs senescence and prevents cell death induced by telomere dysfunction in human cells. Primary human embryonic lung fibroblasts WI-38 were used. […] Cells at passage 29 were treated with 50 pM rapamycin. The treatment was on a 10-day cycle of 3-day with and 7-day without rapamycin (also termed as 3-day-on/7-day-off cycle). […] Due to increased cytosol β-galactosidase activity, senescent cells are stained a blue color (shown as dark grey in black/white picture). […] Rapamycin didn't transform cells since the senescence marker was still present and cell growth was not observed.

In assay [2] the test system is NIH3T3 cells. The assay can be described thus: mitochondrial mass in NIH3T3 cells treated with TPA. The note with it: 10 μM TPA+40 μM AICAR, two days. The format is cell-based, mouse. Here is the method: NIH3T3 cells were incubated in DMEM medium (DMEM with 10% FCS, 100 units/mL penicillin, 100 μg/mL streptomycin and 2 mM glutamine) in the presence of control DMSO, 10 μM TPA, 1 nM rapamycin, 10 μM TPA+1 nM rapamycin, 40 μM AICAR, or 10 μM TPA+40 μM AICAR at 37° C. in a humidified atmosphere consisting of 95% air and 5% CO2 for two days. Cells were then harvested by trypsin and fixed by 60% ethanol. The cells were stained with MitoTracker Greeen FM in darkness for 30 min prior to FACS analysis. The data represents the average of a triplica-experiment.

Assay [3] deals with NIH3T3 cells. Kind of assay: TPA-induced transformation of NIH3T3 cells, colony formation in soft agar. It counts as cell-based, mouse. The note with it: 10 μM TPA + AICAR (40 μM). Here is the method:
(A) TPA (10 μM) was incubated with NIH3T3 cells in 0.39% soft agar in the presence of DMSO, 1 nM rapamycin, or 250 nM AICAR, and cultured for 7 days prior to counting colonies under a microscope. (B) The data represents the average of four experiments.
The experiment was done as in Example 19. In brief, 1500 NIH3T3 cells were mixed with 50 μL, of 0.4% agarose in culture medium (basal medium with 10% bovine fetal serum), layered on 96-well plates pre-covered with 50 μL of 0.8% agarose in culture medium. 100 μL of culture medium containing drugs to make final DMSO, 10 μM TPA, 40 μM AICAR, or 10 μM TPA+[…] was then added into the wells. The cells were incubated in a 37° C. incubator with 5% CO2 for more than 7 days. 50 μL of fresh medium was added every 5 days. Colonies were then counted under a microscope.
Transformation of NIH 3T3 cells is a good in vitro tumorigenesis assay, which measures colony formation in soft agar (termed as anchorage-independent growth). The […] TPA (12-O-Tetradecanoylphorbol 13-acetate) is known to stimulate protein kinase C (PKC), activate oncogenes and transform mouse embryonic fibroblast NIH3T3 cells. The TPA-induced anchorage-independent growth of NIH3T3 cell was employed as a tumorigenesis assay. […] Colonies were then counted under a microscope. […]

The subject of a further assay is human lymphoblastoid L40. The assay can be described thus: mitochondrial mass in human lymphoblastoid L40, MitoTracker Green FM and FACS. The format is cell-based. To be noted: 2-day treatment; 10 μM LY294002, 2 μM DATS, 1 μM BITC, 1 μM PITC, 2 μg/mL resveratrol, 0.03 μM lycopene, 6.7 μM PEITC, 5 mM silibinin, 1.25 mM selenite, 2.5 mM genistein, 250 μg/mL GSE, 50 μg/mL EGCG, 3 mg/mL bilberry extract, 1 μM AITC, 50 pM rapamycin, 250 μM AICAR. An excerpt: Mitochondrial mass was monitored by staining the 60% Ethanol-fixed cells with MitoTracker Green FM prior to FACS analysis.

For `C[n+]1ccc(-c2ccccc2)cc1` [MPP^+], in the assay with WI-38 cells, the “ROS level in WI-38 cells” value was “greatly increased ROS level”.
In the case of `NC(=O)c1ncn([C@@H]2O[C@H](CO)[C@@H](O)[C@H]2O)c1N` [AICAR, 5-aminoimidazole-4-carboxamide-1-beta-D-ribofuranoside, reference compound], the “loss of the senescent WI-38 cells” value in assay [1] is “prevented”. In the assay with NIH3T3 cells [2], the “mitochondrial mass decrease induced by TPA” value was “reverses the decrease in mitochondrial mass”. Besides, the “anchorage-independent growth of NIH3T3 cells induced by TPA” value in the assay on NIH3T3 cells [3] was “inhibits the anchorage-independent growth”. Also, in the assay on human lymphoblastoid L40, the mitochondrial mass result is reported as “increased”.
